One experiment has as its target T1, NURR-1/RXRγ (Homo sapiens, UniProt P48443).
T1 construct: expressed in transfected cells; host or cells: Cos-7 cells
Put plainly: Transactivation test, NURR-1-Gal4/RXRγ, luciferase reporter in Cos-7 cells. Conditions: for Emax: COS-7, induction level relative to reference XCT0135908 at 2×10^−5 M (=100%), read-out: hNurr1_RXRgFL Emax (%); for EC50: Cos-7 cells, NURR-1-Gal4/RXRγ, luciferase reporter, read-out: hNurr1_RXRgFL EC50. Type of experiment: cell-based. (In general: In a reporter assay the amount or activity of a reporter protein is the signal.)

The next experiment addresses T2, NURR-1/RXRα (Homo sapiens, UniProt P19793).
T2 construct: expressed in transfected cells; host or cells: Cos-7 cells
Put plainly: Transactivation test, NURR-1-Gal4/RXRα, luciferase reporter in Cos-7 cells. Type of experiment: cell-based. To be noted: for Emax: COS-7, induction level relative to reference XCT0135908 at 2×10^−5 M (=100%), read-out: hNurr1_RXRaFL Emax (%); for EC50: Cos-7 cells, NURR-1-Gal4/RXRα, luciferase reporter, read-out: hNurr1_RXRaFL EC50.

T1 sequence (P48443 whole entry): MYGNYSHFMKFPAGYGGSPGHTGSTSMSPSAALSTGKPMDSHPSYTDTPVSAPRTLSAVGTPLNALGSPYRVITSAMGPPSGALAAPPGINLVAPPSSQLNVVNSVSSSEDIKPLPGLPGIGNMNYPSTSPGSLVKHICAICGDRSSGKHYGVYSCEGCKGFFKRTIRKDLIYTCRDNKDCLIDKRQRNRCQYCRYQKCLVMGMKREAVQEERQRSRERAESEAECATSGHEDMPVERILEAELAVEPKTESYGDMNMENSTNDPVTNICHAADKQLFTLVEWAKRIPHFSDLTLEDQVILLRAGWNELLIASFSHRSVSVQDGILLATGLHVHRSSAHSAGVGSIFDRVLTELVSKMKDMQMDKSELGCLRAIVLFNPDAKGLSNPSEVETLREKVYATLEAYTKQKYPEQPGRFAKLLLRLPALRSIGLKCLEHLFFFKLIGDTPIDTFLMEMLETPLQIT
T1 sequence (P43354 whole entry partner): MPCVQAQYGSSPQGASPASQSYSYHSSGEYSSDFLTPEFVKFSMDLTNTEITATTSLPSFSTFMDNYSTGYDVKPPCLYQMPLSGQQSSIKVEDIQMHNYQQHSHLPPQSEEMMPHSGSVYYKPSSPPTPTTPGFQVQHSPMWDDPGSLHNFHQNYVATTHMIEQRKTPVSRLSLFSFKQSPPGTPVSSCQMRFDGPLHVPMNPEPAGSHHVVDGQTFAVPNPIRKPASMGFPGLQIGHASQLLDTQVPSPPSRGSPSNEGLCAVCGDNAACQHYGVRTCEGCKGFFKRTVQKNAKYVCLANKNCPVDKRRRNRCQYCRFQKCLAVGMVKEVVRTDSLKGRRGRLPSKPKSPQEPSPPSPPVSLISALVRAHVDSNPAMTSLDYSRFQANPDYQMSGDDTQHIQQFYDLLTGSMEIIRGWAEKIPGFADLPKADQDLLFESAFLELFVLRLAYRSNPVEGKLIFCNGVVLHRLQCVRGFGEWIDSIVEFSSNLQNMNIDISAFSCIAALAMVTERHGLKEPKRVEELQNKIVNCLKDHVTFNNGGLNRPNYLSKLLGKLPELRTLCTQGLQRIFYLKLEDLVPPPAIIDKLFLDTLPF
T1 sequence (P04386 1-147 partner limits assumed): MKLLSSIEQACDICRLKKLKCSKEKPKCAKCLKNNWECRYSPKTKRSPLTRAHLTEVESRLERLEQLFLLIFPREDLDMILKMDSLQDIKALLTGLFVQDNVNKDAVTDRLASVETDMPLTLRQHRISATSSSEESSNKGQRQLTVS
T2 sequence (P19793 whole entry): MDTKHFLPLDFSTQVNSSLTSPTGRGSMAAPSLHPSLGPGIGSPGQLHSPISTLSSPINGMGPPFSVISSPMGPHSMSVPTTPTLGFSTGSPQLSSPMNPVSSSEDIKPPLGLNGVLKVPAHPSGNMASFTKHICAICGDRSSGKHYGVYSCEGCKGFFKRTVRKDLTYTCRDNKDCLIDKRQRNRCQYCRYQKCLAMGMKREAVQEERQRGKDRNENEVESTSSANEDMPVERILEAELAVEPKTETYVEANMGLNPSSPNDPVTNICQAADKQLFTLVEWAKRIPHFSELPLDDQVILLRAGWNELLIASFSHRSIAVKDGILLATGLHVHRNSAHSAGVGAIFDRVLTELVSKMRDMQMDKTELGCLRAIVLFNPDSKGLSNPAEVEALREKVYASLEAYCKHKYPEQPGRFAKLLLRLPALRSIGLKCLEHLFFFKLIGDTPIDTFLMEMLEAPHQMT
T2 sequence (P43354 whole entry partner): as the sequence (P43354 whole entry partner) above
T2 sequence (P04386 1-147 partner limits assumed): as the sequence (P04386 1-147 partner limits assumed) above

With `CC(C)(C)c1cccc(-c2cccc(N3CC(C(=O)O)C3)c2)c1` [Example 84, 1-[3-(3-tert-butylphenyl)phenyl]azetidine-3-carboxylic acid], on NURR-1/RXRγ, the Emax amounted to 120% and the EC50 is 82 nM. Further, on NURR-1/RXRα, the Emax was 112% and the EC50 turned out to be 44 nM.
Consider `CC1(C(=O)O)CN(c2cccc(-c3ccc4c(c3)C(C)(C)CCC4(C)C)c2)C1` [Example 87], for which, at NURR-1/RXRγ, the Emax is 38% and the EC50 was greater than 5000 nM. In addition, at NURR-1/RXRα, the Emax turned out to be 69% and the EC50 was greater than 5000 nM.
As for `CCCOc1ccc(C(F)(F)F)cc1-c1cccc(N2CC(C(=O)O)C2)c1` [Example 88, 1-[3-[2-propoxy-5-(trifluromethyl)phenyl]phenyl]azetidine-3-carboxylic acid], at NURR-1/RXRγ, the Emax is 80% and the EC50 came out at 73 nM. Besides, on NURR-1/RXRα, the Emax amounted to 69% and the EC50 turned out to be 60 nM.
For the compound `CCCCOc1ccc(C(F)(F)F)cc1-c1cccc(N2CC(C(=O)O)C2)c1` [Example 89], the Emax at NURR-1/RXRγ was 64%; at NURR-1/RXRα it was 61%. For the same compound, the EC50 at NURR-1/RXRγ came out at 21 nM; at NURR-1/RXRα, 23 nM.
For `O=C(O)C1CN(c2cccc(-c3cc(C(F)(F)F)ccc3OCc3ccccc3)c2)C1` [Example 90, 1-[3-[2-benzyloxy-5-(trifluoromethyl)phenyl]phenyl]azetidine-3-carboxylic acid], at NURR-1/RXRγ, the Emax turned out to be 57% and the concentration for a half-maximal effect (EC50) was 7 nM. Further, at NURR-1/RXRα, the Emax was 67% and the EC50 was 6 nM.
Take `O=C(O)C1CN(c2cccc(-c3cc(C(F)(F)F)ccc3OCC3CCOC3)c2)C1` (centres unmarked) [Example 91]: on NURR-1/RXRγ, the Emax came to 77% and the EC50 turned out to be 282 nM. Besides, on NURR-1/RXRα, the maximal response (Emax) turned out to be 43% and the EC50 turned out to be 278 nM.
Turning to `COc1cccc(COc2ccc(C(F)(F)F)cc2-c2cccc(N3CC(C(=O)O)C3)c2)c1` [Example 92, 1-[3-[2-[(3-methoxyphenyl)methoxy]-5-(trifluoromethyl)phenyl]phenyl]azetidine-3-carboxylic acid], the maximal response (Emax) at NURR-1/RXRγ stood at 36%; at NURR-1/RXRα it was 59%. Besides, the EC50 on NURR-1/RXRγ turned out to be 93 nM; at NURR-1/RXRα it was 29 nM.
For `O=C(O)C1CN(c2cccc(-c3cc(C(F)(F)F)ccc3OCCc3ccccc3)c2)C1` [Example 93, 1-[3-[2-phenyethyloxy-5-(trifluromethyl)phenyl]phenyl]azetidine-3-carboxylic acid], in that order: 42%, 58%, 31 nM and 33 nM.
With `O=C(O)C1CN(c2cccc(-c3cc(C(F)(F)F)ccc3OCc3cccs3)c2)C1` [Example 96], on NURR-1/RXRγ, the Emax turned out to be 96% and the half-maximal effective concentration (EC50) was found to be 10 nM. Further, at NURR-1/RXRα, the Emax came to 117% and the EC50 was 7 nM.
As to `O=C(O)C1CN(c2cccc(-c3cc(C(F)(F)F)ccc3OCc3ccccc3Cl)c2)C1` [Example 97, 1-[3-[2-[(2-chlorophenyl)methyoxy]-5-(trifluoromethyl)phenyl]phenyl]azetidine-3-carboxylic acid], the Emax at NURR-1/RXRγ was determined as 38%; on NURR-1/RXRα, 49%. Besides, the EC50 at NURR-1/RXRγ worked out at 13 nM; on NURR-1/RXRα it was 12 nM.
`O=C(O)C1CN(c2cccc(-c3cc(C(F)(F)F)ccc3OCc3ccc(F)cc3)c2)C1` [Example 99, 1-[3-[2-[(4-fluorophenyl),ethoxy]-5-(trifluroomethyl)phenyl]phenyl]azetidine-3-carboxylic acid]: at NURR-1/RXRγ, the maximal response (Emax) was 51% and the 50% effective concentration (EC50) came to 19 nM. Moreover, on NURR-1/RXRα, the Emax turned out to be 56% and the EC50 came to 17 nM.
As for `CC(C)C(Oc1ccc(C(F)(F)F)cc1-c1cccc(N2CC(C(=O)O)C2)c1)C(C)C` [Example 101, 1-[3-[2-(1-isopropyl-2-methlypropoxy)-5-(trifluoromethyl)phenyl]phenyl]azetidine-3-carboxylic acid], at NURR-1/RXRγ, the maximum response (Emax) is 41% and the EC50 was 60 nM. Further, on NURR-1/RXRα, the maximal response (Emax) is 55% and the half-maximal effective concentration (EC50) is 118 nM.
The like results for `COCCOc1ccc(C(F)(F)F)cc1-c1cccc(N2CC(C(=O)O)C2)c1` [Example 102, 1-[3-[2-(2-methoxyethoxy)-5-(trifluoromethyl)phenyl]phenyl]azetidine-3-carboxylic acid] were, in that order, 94%, 125 nM, 97% and 159 nM.
As for `CCC(CC)COc1ccc(C(F)(F)F)cc1-c1cccc(N2CC(C(=O)O)C2)c1` [Example 103, 1-[3-[2-(2-ethylbutoxy)-5-(trifluoromethyl)phenyl]phenyl]azetidine-3-carboxylic acid], on NURR-1/RXRγ, the Emax is 58% and the EC50 came out at 17 nM. Further, at NURR-1/RXRα, the Emax turned out to be 62% and the EC50 amounted to 16 nM.
For `CCC(C)Oc1ccc(C(F)(F)F)cc1-c1cccc(N2CC(C(=O)O)C2)c1` (centres unmarked) [Example 105, 1-[3-[2-sec-butoxy-5-(trifluoromethyl)phenyl]phenyl]azetidine-3-carboxylic acid], the results for the Emax on NURR-1/RXRγ and at NURR-1/RXRα were 55% and 56%, respectively. Besides, the EC50 on NURR-1/RXRγ is 19 nM; on NURR-1/RXRα it was 10 nM.
The like results for `Cc1cc(C)cc(COc2ccc(C(F)(F)F)cc2-c2cccc(N3CC(C(=O)O)C3)c2)c1` [Example 106, 1-[3-[2-[(3,5-dimethylphenyl)methoxy]-5-(trifluoromethyl)phenyl]phenyl]azetidine-3-carboxylic acid] were, in that order, 36%, 40%, 13 nM and 13 nM.
With `O=C(O)C1CN(c2cccc(-c3cc(C(F)(F)F)ccc3OCc3cccc(Cl)c3)c2)C1` [Example 107, 1-[3-[2-[(3-chlorophenyl)methyoxy]-5-(trifluoromethyl)-phenyl]phenyl]azetidine-3-carboxylic acid], at NURR-1/RXRγ, the Emax was found to be 48% and the EC50 is 30 nM. In addition, at NURR-1/RXRα, the Emax turned out to be 48% and the EC50 amounted to 19 nM.
As for `Cn1ccc(COc2ccc(C(F)(F)F)cc2-c2cccc(N3CC(C(=O)O)C3)c2)n1` [Example 108, 1-[3-[2-[(1-methylpyrazol-3-yl)methoxy]-5-(trifluoromethyl)phenyl]phenyl]azetidine-3-carboxylic acid], at NURR-1/RXRγ, the Emax was 54% and the EC50 worked out at 112 nM. For the same compound, at NURR-1/RXRα, the Emax was determined as 53% and the EC50 came out at 82 nM.
Regarding `O=C(O)C1CN(c2cccc(-c3cc(C(F)(F)F)ccc3OCc3ccsc3)c2)C1` [Example 111, 1-[3-[2-(3-thienylmethoxy)-5-(trifluoromethyl)phenyl]phenyl]azetidine-3-carboxylic acid], the Emax on NURR-1/RXRγ and at NURR-1/RXRα was 94% throughout. Also, the values for the concentration giving a half-maximal response (EC50) on NURR-1/RXRγ and at NURR-1/RXRα were 15 nM and 8 nM, respectively.
On to `CC1(C)CN(c2cccc(N3CC(C(=O)O)C3)c2)c2ccc(C(F)(F)F)cc2O1` [Example 112, 1-[3-[2,2-dimethyl-7-(trifluoromethyl)-3H-1,4,benzoxazin-4-yl]phenyl]azetidine-3-carboxylic acid], for which, on NURR-1/RXRγ, the Emax was 136% and the EC50 amounted to 9 nM. Further, on NURR-1/RXRα, the Emax was found to be 125% and the half-maximal effective concentration (EC50) is 3 nM.
For `O=C(O)C1CN(c2cccc(N3C(=O)C4(CCC4)Oc4cc(C(F)(F)F)ccc43)c2)C1` [Example 121, 1-[3-[3-oxo-7-(trifluromethyl)spiro[3H1,4-benzoxazine-2,1′-cyclobutane]-4yl]phenyl]azetidine-3-carboxylic acid], in that order: 133%, 13 nM, 122% and 12 nM.
For `O=C(O)C1CN(c2cccc(-n3cc(CC4CCCC4)c4cc(C(F)(F)F)ccc43)c2)C1` [Example 127, 1-[3-[3-(cyclopentylmethyl)-5-(trifluoromethyl)indol-1-yl]phenyl]azetidine-3-carboxylic acid], in that order: 113%, 3 nM, 117% and 4 nM.
Turning to `O=C(O)C1CN(c2cccc(-n3cc(CC4CCOCC4)c4cc(C(F)(F)F)ccc43)c2)C1` [Example 129, 1-[3-[3-(tetrahydropyran-4-ylmethyl)-5-(trifluoromethyl)indol-1-yl]phenyl]azetidine-3-carboxylic acid], the values for the Emax on NURR-1/RXRγ and on NURR-1/RXRα were 88% and 90%, respectively. For the same compound, the EC50 came to 10 nM at NURR-1/RXRγ and 7 nM on NURR-1/RXRα.
The like results for `CNS(=O)(=O)c1cn(-c2cccc(N3CC(C(=O)O)C3)c2)c2ccc(C(F)(F)F)cc12` [Example 137] were, in that order, 85%, 82%, 2090 nM and 995 nM.
With `O=C(O)C1CN(c2cccc(N3CC4(CCCC4)c4cc(C(F)(F)F)ccc43)c2)C1` [Example 139, 1-[3-[5′-(trifluoromethyl)spiro[cyclopentane-1,3′-indoline]-1′-yl]phenyl]azetidine-3-carboxylic acid], on NURR-1/RXRγ, the maximal effect (Emax) came out at 122% and the EC50 was found to be 10 nM. On NURR-1/RXRα, the Emax was determined as 115% and the EC50 came to 7 nM.
For `O=C(O)C1CN(c2cccc(N3CC4(CCOC4)c4cc(C(F)(F)F)ccc43)c2)C1` (centres unmarked) [Example 140, 1-[3-[5-(trifluoromethyl)spiro[indoline-3,3′-tetrahydrofuran]-1-yl]phenyl]azetidine-3-carboxylic acid], in that order: 97%, 30 nM, 108% and 40 nM.

One may read the Emax as the greatest response seen or fitted, relative to the assay's reference. The term EC50 denotes the concentration giving half of the maximal effect.

The record behind these values is US20170066717A1, “NEW PHENYLAZETIDINECARBOXYLATE OR -CARBOXAMIDE COMPOUNDS” (INVENTIVA, priority 2014, published 2017).
